# Earlier results in patent US20110060000A1, “ACRIDINE ANALOGS IN THE TREATMENT OF GLIOMAS” (priority 2009, published 2011).
# Test system: gliomas
# Details: in association with established anti-glioma medications; cited from earlier work
structure (smiles),measurement,value
CCN(CC)CCCC(C)Nc1ccnc2cc(Cl)ccc12 (stereo not shown) [Chloroquine],patient survival,patient survival was significantly prolonged
